According to patent US20230312550A1, “N-(2-(4-CYANOTHIAZOLIDIN-3-YL)-2-OXOETHYL)-QUINOLINE-4-CARBOXAMIDES” (AstraZeneca AB, priority 2020, published 2023):
In brackets after ≈: the same amount, converted by molar mass.

Assays:
[1] = target: Prolyl endopeptidase, Prolyl Oligopeptidase (hPREP) (Homo sapiens (Human), UniProt P48147); assay: hPrep inhibition assay; assay type: biochemical; details: hPREP 0.6 nM, Z-Gly-Pro-amino-methylcoumarin 50 μM; read-out: PREP IC50
Procedure, shortened: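 Recombinant human PREP at 0.6 nM final with Z-Gly-Pro-AMC substrate at 50 μM final in Tris-HCl pH 7.5, NaCl, Triton X-100, glutathione; 15 min rt preincubation then 20 min rt reaction in dark. AMC fluorescence (ex 340/em 460 nm); IC50 from one-site dose-response fit of % inhibition.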

[2] = Metabolic stability in human liver microsomes (HLM); details: human
Procedure: Metabolic stability in HLM was measured as described in J Comput Aided Mol Des 2015, 29, 795.

hFAP (M39-A757) = hFAP (M39-A757) (Homo sapiens (Human), UniProt Q12884); assay: hFAP binding assay (surface plasmon resonance); details: SPR, 20° C.; for hFAP Binding assay k(off) / hFAP Binding assay k(on): single cycle kinetics; for Kd: n = 1 or geometric mean n = 2-4
Chain of hFAP (M39-A757) (Q12884 39-757): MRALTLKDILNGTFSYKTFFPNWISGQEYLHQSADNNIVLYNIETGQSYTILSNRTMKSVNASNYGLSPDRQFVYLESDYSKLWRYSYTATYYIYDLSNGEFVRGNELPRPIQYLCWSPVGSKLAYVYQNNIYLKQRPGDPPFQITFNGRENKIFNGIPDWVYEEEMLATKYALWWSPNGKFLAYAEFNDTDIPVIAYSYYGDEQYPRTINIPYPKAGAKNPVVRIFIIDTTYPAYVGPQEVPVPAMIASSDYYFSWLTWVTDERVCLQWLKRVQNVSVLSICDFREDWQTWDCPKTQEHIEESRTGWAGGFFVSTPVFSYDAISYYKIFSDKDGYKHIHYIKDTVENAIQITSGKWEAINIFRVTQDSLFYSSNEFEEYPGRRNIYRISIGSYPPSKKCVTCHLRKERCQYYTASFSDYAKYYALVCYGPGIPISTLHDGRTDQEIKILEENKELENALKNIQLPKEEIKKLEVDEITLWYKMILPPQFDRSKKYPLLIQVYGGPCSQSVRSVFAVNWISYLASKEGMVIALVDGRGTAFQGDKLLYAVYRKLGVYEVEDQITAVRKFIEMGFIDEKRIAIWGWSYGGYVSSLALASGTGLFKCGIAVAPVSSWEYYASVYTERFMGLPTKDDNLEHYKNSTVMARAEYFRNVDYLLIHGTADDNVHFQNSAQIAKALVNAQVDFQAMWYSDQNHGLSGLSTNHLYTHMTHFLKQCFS

Kinetic solubility = details: kinetic from dmso stock
Procedure: Kinetic solubility was measured as described in Comput Aided Mol Des 2015, 29, 795.

[3] = Metabolic stability in rat hepatocytes (rHep); details: n = 1 or geometric mean of n = 2-3
[4] = target: human Fibroblast activation protein alpha (hFAP) (Homo sapiens (Human), UniProt Q12884); assay: hFAP inhibition assay (tight binders); assay type: biochemical; details: Ala-Pro-AMC 20 μM, n = 1 or geometric mean n = 2-6; also: hFAP 2.4 pM
Chain of human Fibroblast activation protein alpha (hFAP) (Q12884 38-760): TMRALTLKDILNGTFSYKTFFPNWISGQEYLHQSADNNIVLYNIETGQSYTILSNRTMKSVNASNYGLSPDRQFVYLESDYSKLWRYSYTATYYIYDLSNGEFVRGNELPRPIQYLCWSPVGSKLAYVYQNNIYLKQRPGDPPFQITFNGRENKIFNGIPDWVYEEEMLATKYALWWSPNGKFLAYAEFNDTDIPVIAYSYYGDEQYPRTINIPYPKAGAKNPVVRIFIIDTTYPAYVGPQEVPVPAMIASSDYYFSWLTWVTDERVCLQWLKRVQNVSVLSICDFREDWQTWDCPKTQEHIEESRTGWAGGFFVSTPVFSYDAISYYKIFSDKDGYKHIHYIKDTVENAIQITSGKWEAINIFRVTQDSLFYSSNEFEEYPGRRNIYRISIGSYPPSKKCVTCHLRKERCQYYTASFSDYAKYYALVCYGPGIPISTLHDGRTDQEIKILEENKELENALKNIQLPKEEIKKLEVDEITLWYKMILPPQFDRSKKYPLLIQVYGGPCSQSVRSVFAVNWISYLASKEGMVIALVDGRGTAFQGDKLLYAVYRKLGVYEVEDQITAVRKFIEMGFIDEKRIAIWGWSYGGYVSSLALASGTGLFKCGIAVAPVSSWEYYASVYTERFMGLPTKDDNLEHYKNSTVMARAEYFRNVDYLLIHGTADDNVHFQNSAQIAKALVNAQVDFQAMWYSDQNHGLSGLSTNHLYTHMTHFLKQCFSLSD
Procedure: The plates were read on a PHERAstar® reader with excitation 340 nm and emission 460 nm. Data were analyzed in Genedata Screener®. IC50 values were determined by plotting % inhibition versus log compound concentration and using a one site dose response model.

[5] = HLM CLint, n = 1 or average of n = 2-3
[6] = Solubility, kinetic solubility, n = 1 or average of n = 2-3

Chain of Prolyl endopeptidase, Prolyl Oligopeptidase (hPREP) (P48147 whole entry): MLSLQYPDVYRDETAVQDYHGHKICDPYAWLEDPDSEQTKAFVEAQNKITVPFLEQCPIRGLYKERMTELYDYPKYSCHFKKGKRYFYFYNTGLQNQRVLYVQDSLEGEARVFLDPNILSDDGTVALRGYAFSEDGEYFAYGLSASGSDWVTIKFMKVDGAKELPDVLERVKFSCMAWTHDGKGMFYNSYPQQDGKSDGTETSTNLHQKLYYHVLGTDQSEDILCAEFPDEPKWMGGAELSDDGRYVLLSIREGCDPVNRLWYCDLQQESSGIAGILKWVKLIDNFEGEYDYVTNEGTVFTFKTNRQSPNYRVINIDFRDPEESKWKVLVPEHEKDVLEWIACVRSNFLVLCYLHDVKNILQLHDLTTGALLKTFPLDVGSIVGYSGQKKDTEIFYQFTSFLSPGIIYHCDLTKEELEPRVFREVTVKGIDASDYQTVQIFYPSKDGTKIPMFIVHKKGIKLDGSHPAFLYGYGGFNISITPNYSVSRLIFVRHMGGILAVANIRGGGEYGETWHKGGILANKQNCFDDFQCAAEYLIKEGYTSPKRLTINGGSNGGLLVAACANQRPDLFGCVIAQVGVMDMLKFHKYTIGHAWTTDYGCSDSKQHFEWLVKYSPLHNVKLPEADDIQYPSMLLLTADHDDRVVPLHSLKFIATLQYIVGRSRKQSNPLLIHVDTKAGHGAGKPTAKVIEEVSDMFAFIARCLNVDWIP

Row | Structure (SMILES) | IC50 [1] [nM] | microsomal CLint [2, 5] [µL/min/mg] | hFAP Binding assay k(off) (hFAP (M39-A757)) [s⁻¹] | hFAP Binding assay k(on) (hFAP (M39-A757)) [M⁻¹ s⁻¹] | Kd (hFAP (M39-A757)) [nM] | solubility (Kinetic solubility; [6]) [µM] | rHep CLint [3] [μL/min/1E6] | IC50 [4] [nM] | microsomal CLint [2] [µL/min/mg] | solubility (Kinetic solubility) [µM]
1 | N#C[C@@H]1CSCN1C(=O)CNC(=O)c1ccnc2ccc(N3CC(OC(F)(F)F)C3)cc12 [Example 132, (R)—N-(2-(4-Cyanothiazolidin-3-yl)-2-oxoethyl)-6-(3-(trifluoromethoxy)-azetidin-1-yl)quinoline-4-carboxamide] | 3700 | 38 | 0.00014 | 270000 | 0.52 | 13 (≈ 6.05 µg/mL) | 8.5 | 0.41 | – | –
2 | CC1(CC(F)F)CN(c2ccc3nccc(C(=O)NCC(=O)N4CSC[C@H]4C#N)c3c2)C1 [Example 133, (R)—N-(2-(4-Cyanothiazolidin-3-yl)-2-oxoethyl)-6-(3-(2,2-difluoroethyl)-3-methylazetidin-1-yl)quinoline-4-carboxamide] | 370 | 40 | 0.000073 | 1200000 | 0.066 | < 380 | 8.8 | 0.1 | – | –
3 | CC1(C2CC2)CN(c2ccc3nccc(C(=O)NCC(=O)N4CSC[C@H]4C#N)c3c2)C1 [Example 134, (R)—N-(2-(4-Cyanothiazolidin-3-yl)-2-oxoethyl)-6-(3-cyclopropyl-3-methylazetidin-1-yl)quinoline-4-carboxamide] | 620 | 210 | 0.000080 | 620000 | 0.13 | 71 (≈ 30.9 µg/mL) | 74 | 0.13 | – | –
4 | N#C[C@@H]1CSCN1C(=O)CNC(=O)c1ccnc2ccc(N3CC(OC(F)F)C3)cc12 [Example 136, (R)—N-(2-(4-Cyanothiazolidin-3-yl)-2-oxoethyl)-6-(3-(difluoromethoxy)-azetidin-1-yl)quinoline-4-carboxamide] | 300 | < 3 | 0.000050 | 2000000 | 0.036 | 21 (≈ 9.4 µg/mL) | 4.8 | 0.061 | – | –
5 | CCC1(C)CN(c2ccc3nccc(C(=O)NCC(=O)N4CSC[C@H]4C#N)c3c2)C1 [Example 137, (R)—N-(2-(4-Cyanothiazolidin-3-yl)-2-oxoethyl)-6-(3-ethyl-3-methyl-azetidin-1-yl)quinoline-4-carboxamide] | 340 | 70 | 0.000098 | 9500000 | 0.013 | 74 (≈ 31.3 µg/mL) | 17 | 0.11 | – | –
6 | N#C[C@@H]1CSCN1C(=O)CNC(=O)c1ccnc2ccc(N3CC4(CCCC4)C3)cc12 [Example 139, (R)—N-(2-(4-Cyanothiazolidin-3-yl)-2-oxoethyl)-6-(2-azaspiro[3.4]octan-2-yl)quinoline-4-carboxamide] | 1000 | – | – | – | 0.015 | – | 13 | 0.32 | 72 | 50 (≈ 21.8 µg/mL)
7 | CC(F)(F)CC1CN(c2ccc3nccc(C(=O)NCC(=O)N4CSC[C@H]4C#N)c3c2)C1 [Example 140, (R)—N-(2-(4-Cyanothiazolidin-3-yl)-2-oxoethyl)-6-(3-(2,2-difluoropropyl)-azetidin-1-yl)quinoline-4-carboxamide] | 840 | 32 | 0.00016 | 2600000 | 0.064 | 39 (≈ 17.9 µg/mL) | 7.7 | 0.1 | – | –
8 | N#C[C@@H]1CSCN1C(=O)CNC(=O)c1ccnc2ccc(N3CC4(CCCC4(F)F)C3)cc12 [Example 141, (R)—N-(2-(4-Cyanothiazolidin-3-yl)-2-oxoethyl)-6-(5,5-difluoro-2-azaspiro[3.4]octan-2-yl)quinoline-4-carboxamide] | 460 | – | 0.000078 | 1400000 | 0.062 | – | 11 | 0.059 | 54 | 140 (≈ 66 µg/mL)
9 | N#C[C@@H]1CSCN1C(=O)CNC(=O)c1ccnc2ccc(N3CC(CCC(F)(F)F)C3)cc12 [Example 142, (R)—N-(2-(4-Cyanothiazolidin-3-yl)-2-oxoethyl)-6-(3-(3,3,3-trifluoropropyl)azetidin-1-yl)quinoline-4-carboxamide] | 530 | 43 | 0.000055 | 1800000 | 0.028 | 1.8 (≈ 0.86 µg/mL) | 6.7 | 0.088 | – | –
10 | N#C[C@@H]1CSCN1C(=O)CNC(=O)c1ccnc2ccc(N3CC(F)(C(F)(F)F)C3)cc12 [Example 143, (R)—N-(2-(4-Cyanothiazolidin-3-yl)-2-oxoethyl)-6-(3-fluoro-3-(trifluoromethyl)azetidin-1-yl)quinoline-4-carboxamide] | 460 | 40 | 0.000057 | 1600000 | 0.036 | 33 (≈ 15.4 µg/mL) | 13 | 0.069 | – | –
11 | N#C[C@@H]1CSCN1C(=O)CNC(=O)c1ccnc2ccc(N3CC(CC(F)F)C3)cc12 [Example 144, (R)—N-(2-(4-Cyanothiazolidin-3-yl)-2-oxoethyl)-6-(3-(2,2-difluoroethyl)-azetidin-1-yl)quinoline-4-carboxamide] | 460 | 14 | 0.00051 | 9100000 | 0.049 | 18 (≈ 8.02 µg/mL) | 7 | 0.081 | – | –
12 | N#C[C@@H]1CSCN1C(=O)CNC(=O)c1ccnc2ccc(N3CC(C4CC4)C3)cc12 [Example 145, (R)—N-(2-(4-Cyanothiazolidin-3-yl)-2-oxoethyl)-6-(3-cyclopropylazetidin-1-yl)quinoline-4-carboxamide] | 250 | 40 | 0.00013 | 4500000 | 0.029 | 5.3 (≈ 2.23 µg/mL) | 10 | 0.07 | – | –
13 | N#C[C@@H]1CSCN1C(=O)CNC(=O)c1ccnc2ccc(N3CC(CCF)C3)cc12 [Example 146, (R)—N-(2-(4-Cyanothiazolidin-3-yl)-2-oxoethyl)-6-(3-(2-fluoroethyl)-azetidin-1-yl)quinoline-4-carboxamide] | 450 | 11 | 0.00017 | 1400000 | 0.12 | 24 (≈ 10.3 µg/mL) | 4.3 | 0.15 | – | –
14 | CC(C)C1CN(c2ccc3nccc(C(=O)NCC(=O)N4CSC[C@H]4C#N)c3c2)C1 [Example 148, (R)—N-(2-(4-Cyanothiazolidin-3-yl)-2-oxoethyl)-6-(3-isopropylazetidin-1-yl)quinoline-4-carboxamide] | 420 | 53 | 0.0002 | 6600000 | 0.031 | 3.4 (≈ 1.44 µg/mL) | 12 | 0.059 | – | –
